These results are taken from US12269902B2, “Peptide compounds and peptide conjugates for the treatment of cancer through receptor-mediated chemotherapy” (TRANSFERT PLUS, S.E.C., priority 2015, dated 2025).

SMILES strings stand for the structures. Non-standard residues stand in square brackets, D forms with d. Residues, ends and D or L forms follow the SMILES beside them. *: point of attachment. X3 = COc1cccc2c1C(=O)c1c(O)c3c(c(O)c1C2=O)C[C@@](O)(C(=O)COC(=O)CC(C)(C)CC(=O)*)C[C@@H]3O[C@H]1C[C@H](N)[C@H](O)[C@H](C)O1; X2 = COc1cc(/C=C/C(=O)CC(=O)/C=C/c2ccc(OC(=O)CC(C)(C)CC(=O)*)c(OC)c2)ccc1O; Nle = CCCC[C@H](N)C(=O)O

In data set [1] the test system is ES-2 ovarian cancer cells. Description: [3H]-Thymidine incorporation cell proliferation assay, ES-2. It is filed as cell-based. As to conditions: ES-2 (Ovary). On the procedure:
(§1) The effect of the Docetaxel-Katana peptide conjugate on various cell line proliferations was evaluated and compared to unconjugated Docetaxel (Table 4). IC50 values obtained for the Docetaxel-Katana peptide conjugate were very similar to those of Docetaxel in the cancer cells tested.
(§2) The phytochemical Curcumin, unconjugated and conjugated, was also tested on cancer cell proliferation (FIG. 28). Breast cancer cells (MDA-MB231) were incubated with increasing concentrations of KBC106 or curcumin. After 72 hrs, thymidine incorporation assay was performed to assess the anti-proliferative properties of both molecules. IC50 values were extracted from the anti-proliferative curves. […] Proliferation assay was also performed using different types of cancer cells (ovarian, breast, skin and colorectal cancer cells). IC50 values were calculated from the anti-proliferation curves. In all cases, the Curcumin conjugate (KBC106) had stronger anti-proliferative activity (9-100 fold) than unconjugated Curcumin, as shown in Table 6 below.
(§3) Cancer cells were cultured in 96-well white plates (Perkin Elmer). They were synchronized for 24 hours in serum-deprived medium. After incubation of cells with unconjugated drugs (docetaxel, cabazitaxel, doxorubicin) or with drug-Katana peptide conjugates for 2 or 3 days, all media was aspirated and cells were pulse-labeled for 4 hours at 37° C./[…]/5% CO2 with media containing 2.5 μCi/mL [methyl-3H] thymidine (Perkin Elmer). Cells were washed, fixed, and dried before addition of scintillation fluid (Microscint 0, Perkin Elmer). After 24 hours, cell-associated tritium was quantified by counting on a plate reader (TopCount, Perkin Elmer). Incorporated [3H] thymidine was plotted for each drug concentration.
A general note: Uptake of a labelled nucleoside into DNA is a usual measure of proliferation.

Data set [2] has as its system MDA-MB-231 breast cancer cells. The data set can be described thus: cells. On the procedure:
Breast cancer cells (MDA-MB231) were incubated with increasing concentrations of KBC106 or curcumin. After 72 hrs, thymidine incorporation assay was performed to assess the anti-proliferative properties of both molecules. IC50 values were extracted from the anti-proliferative curves.
The phytochemical Curcumin, unconjugated and conjugated, was also tested on cancer cell proliferation (FIG. 28). Breast cancer cells (MDA-MB231) were incubated with increasing concentrations of KBC106 or curcumin. After 72 hrs, thymidine incorporation assay was performed to assess the anti-proliferative properties of both molecules. IC50 values were extracted from the anti-proliferative curves. […] Proliferation assay was also performed using different types of cancer cells (ovarian, breast, skin and colorectal cancer cells). IC50 values were calculated from the anti-proliferation curves.
as §3

Data set [3] concerns SK-MEL-28 skin cancer cells. The data set can be described thus: [3H]-Thymidine incorporation cell proliferation assay, SK-MEL-28. It is filed as cell-based. On the procedure: as §1, §2, §3
Another data set relates to A-375 skin cancer cells. The data set can be described thus: [3H]-Thymidine incorporation cell proliferation assay, A-375. The class given is cell-based. On the procedure: as §1, §2, §3
The subject of data set [4] is ES-2 ovarian cancer cells. The data set can be described thus: ES-2 ovarian subcutaneous tumors (Doxorubicin, KBB106). The class given is in vivo, mice. The following applies: Day 14 post-treatment; equivalent dose of Doxorubicin 6 mg/kg/week. On the procedure: 25A. Mice were implanted in the flank with ES-2 ovarian cancer cells. Tumor growth was measured using a caliper. When tumors reached a tumor volume of about 150 mm^3, mice were treated with Doxorubicin or KBB106 at an equivalent dose of Doxorubicin (6 mg/kg/week). 25B. […] 25C.
(§4) The effect of the conjugated and unconjugated Doxorubicin was also evaluated on ovarian subcutaneous tumors. Mice were implanted in the with ES-2 ovarian cancer cells. Tumor growth was measured using a caliper. When tumors reached a tumor volume of about 150 mm^3, mice were treated with Doxorubicin or Katana-Doxorubicin conjugate KBB106 at an equivalent dose of Doxorubicin (6 mg/kg/week).

A further data set has as its target T1, sortilin (Homo sapiens, UniProt Q99523).
T1 construct: Ovarian cancer cells were transfected with sortilin siRNA (siSortilin) for 24 hrs and then incubated with KBB106; endogenous in cells
T1 sequence (Q99523 78-831): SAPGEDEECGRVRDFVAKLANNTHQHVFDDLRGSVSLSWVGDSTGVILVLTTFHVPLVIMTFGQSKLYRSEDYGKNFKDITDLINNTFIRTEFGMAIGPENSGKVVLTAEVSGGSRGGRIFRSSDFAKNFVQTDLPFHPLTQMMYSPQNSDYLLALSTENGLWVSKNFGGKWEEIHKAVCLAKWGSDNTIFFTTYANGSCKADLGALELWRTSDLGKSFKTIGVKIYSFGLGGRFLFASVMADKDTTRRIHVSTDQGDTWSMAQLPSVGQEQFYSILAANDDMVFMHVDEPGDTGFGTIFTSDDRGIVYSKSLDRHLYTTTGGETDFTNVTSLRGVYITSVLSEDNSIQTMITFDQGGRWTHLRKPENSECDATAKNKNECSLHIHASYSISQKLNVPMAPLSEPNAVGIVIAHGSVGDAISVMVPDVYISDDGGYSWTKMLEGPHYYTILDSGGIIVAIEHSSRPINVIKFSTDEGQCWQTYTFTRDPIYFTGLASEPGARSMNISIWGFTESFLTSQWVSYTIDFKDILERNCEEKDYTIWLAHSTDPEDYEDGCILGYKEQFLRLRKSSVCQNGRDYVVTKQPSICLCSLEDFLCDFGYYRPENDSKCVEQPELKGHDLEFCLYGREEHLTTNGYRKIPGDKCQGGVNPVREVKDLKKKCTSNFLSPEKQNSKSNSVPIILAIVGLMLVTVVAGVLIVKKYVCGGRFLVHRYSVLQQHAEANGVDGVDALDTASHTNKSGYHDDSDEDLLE
Description: Uptake of KBB106 in ovarian cancer cells with reduced sortilin expression. It is filed as cell-based. The following applies: ovarian cancer cells transfected with sortilin siRNA. On the procedure:
A. Ovarian cancer cells were transfected with sortilin siRNA (siSortilin) for 24 hrs and then incubated with KBB106. Accumulation of KBB106 was monitored by the released of fluorescent Doxorubicin as a function of time. B. Ovarian cancer cells were incubated with KBB106 in the presence or absence of sortilin ligand (Katana peptide, progranulin). KBB106 accumulation was estimated by the released of fluorescent Doxorubicin.
The uptake of the Katana conjugate is increased in cells expressing the sortilin receptor.

In data set [5] the test system is SKOV3 ovarian cancer cells. Description: SKOV3 ovarian subcutaneous tumors (KBB106). As to conditions: KBB106 18 mg/kg/week. On the procedure:
26A. Mice were implanted in the flank with SKOV3 ovarian cancer cells. When tumors reached a volume of about 150 mm^3, mice were treated with KBB106 (18 mg/kg/week) as indicated by the arrows. […] 26B. Body weight of mice was monitored during the treatments.
as §4

Data set [6] has as its system HCC-1569 breast cancer cells. The data set can be described thus: cells. The class given is cell-based. The following applies: HCC-1569 (HER2+; Herceptin resistant); Table 6. On the procedure:
as §2, §3

For data set [7], the system named is HCC-1954 breast cancer cells. The data set can be described thus: cells. It is filed as cell-based. The following applies: HCC-1954 (HER2+; Lapatinib resistant); Table 6. On the procedure:
as §2, §3

For data set [8], the system named is HT-29 colorectal cancer cells. The data set can be described thus: cells. The class given is cell-based. As to conditions: Table 6. On the procedure: as §2, §3
[9] abbreviates: Homo sapiens, SK-MEL-28 (Skin), Table 4, 2 or 3 days.
[10] abbreviates: Homo sapiens, A-375 (Skin), Table 4, 2 or 3 days.

A word on the IC50: it is the concentration needed to halve the response being measured. The low end stands for greater potency, the high end for weaker potency. As for `CO[C@H]1C(=O)[C@]2(C)[C@@H](OC)C[C@H]3OC[C@@]3(OC(C)=O)[C@H]2[C@H](OC(=O)c2ccccc2)[C@]2(O)C[C@H](OC(=O)[C@H](O)[C@@H](NC(=O)OC(C)(C)C)c3ccccc3)C(C)=C1C2(C)C` [Cabazitaxel, cabazitaxel], the IC50 in data set [1] (Table 4, 2 or 3 days) was determined as 0.66 nM; in data set [2] (Homo sapiens, MDA-MB-231), 0.44 nM; in data set [3] (setting [9]), 0.12 nM; with A-375 skin cancer cells (setting [10]) it was 0.34 nM.

With `COc1cccc2c1C(=O)c1c(O)c3c(c(O)c1C2=O)C[C@@](O)(C(=O)CO)C[C@@H]3O[C@H]1C[C@H](N)[C@H](O)[C@H](C)O1` [Doxorubicin, doxorubicin], the IC50 in data set [1] (Table 4, 2 or 3 days) was 73.5 nM; in data set [2] (Homo sapiens, MDA-MB-231) it was 9.7 nM; in data set [3] (setting [9]) it was 79.3 nM; in the data set with A-375 skin cancer cells (setting [10]), 11.8 nM. Besides, in [4], the “tumor volume decrease compared to the vehicle group” value turned out to be 43%.

As for `CCCC[C@H](NC(=O)[C@H](CC(N)=O)NC(=O)[C@H](CCCNC(=N)N)NC(=O)[C@@H](NC(=O)CNC(=O)[C@H](C)NC(=O)[C@H](CCCCNC(=O)CC(C)(C)CC(=O)OCC(=O)[C@]1(O)Cc2c(O)c3c(c(O)c2[C@@H](O[C@H]2C[C@H](N)[C@H](O)[C@H](C)O2)C1)C(=O)c1c(OC)cccc1C3=O)NC(=O)[C@H](C)NC(=O)[C@H](CCCNC(=N)N)NC(=O)[C@@H](NC(=O)CNC(C)=O)C(C)C)C(C)C)C(=O)N[C@@H](Cc1ccccc1)C(=O)N[C@@H](CCCCNC(=O)CC(C)(C)CC(=O)OCC(=O)[C@]1(O)Cc2c(O)c3c(c(O)c2[C@@H](O[C@H]2C[C@H](N)[C@H](O)[C@H](C)O2)C1)C(=O)c1c(OC)cccc1C3=O)C(=O)N[C@@H](CO)C(=O)N[C@@H](CCC(=O)O)C(=O)N[C@@H](CO)C(=O)N[C@@H](Cc1ccc(O)cc1)C(=O)O` [KBB-106, Acetyl-GVRAK(doxorubicin)AGVRN(Nle)FK(doxorubicin)SESY] (Ac-GVRAK(X3)AGVRN[Nle]FK(X3)SESY-OH; C-terminus assumed), the “uptake in cells where sortilin expression was reduced” value on sortilin is “reduced”. The “tumor volume decrease compared to the vehicle group” value in data set [4] is 97%. Moreover, in data set [5], the “effect on body weight” value is recorded as “little effect on the body weight” and the “progression of SKOV3 xenograft tumors” value is recorded as “significantly decreased compared to the control group”.

For the compound `CCCC[C@H](NC(=O)[C@H](CC(N)=O)NC(=O)[C@H](CCCNC(=N)N)NC(=O)[C@@H](NC(=O)CNC(=O)[C@H](C)NC(=O)[C@H](CCCCNC(=O)CC(C)(C)CC(=O)Oc1ccc(/C=C/C(=O)CC(=O)/C=C/c2ccc(O)c(OC)c2)cc1OC)NC(=O)[C@H](C)NC(=O)[C@H](CCCNC(=N)N)NC(=O)[C@@H](NC(=O)CNC(C)=O)C(C)C)C(C)C)C(=O)N[C@@H](Cc1ccccc1)C(=O)N[C@@H](CCCCNC(=O)CC(C)(C)CC(=O)Oc1ccc(/C=C/C(=O)CC(=O)/C=C/c2ccc(O)c(OC)c2)cc1OC)C(=O)N[C@@H](CO)C(=O)N[C@@H](CCC(=O)O)C(=O)N[C@@H](CO)C(=O)N[C@@H](Cc1ccc(O)cc1)C(=O)O` [KBC106, Acetyl-GVRAK(curcumin)AGVRN(Nle)FK(curcumin)SESY] (Ac-GVRAK(X2)AGVRN[Nle]FK(X2)SESY-OH; C-terminus assumed), the half-maximal inhibitory concentration (IC50) is 1520 nM in [1] (Table 6); 135 nM in data set [2] (MDA-MB231 (Triple negative), Table 6, 72 hrs); 243 nM in data set [3] (SK-MEL-28, Table 6); 326 nM with A-375 skin cancer cells (A-375, Table 6); 1010 nM in [6]; 1290 nM in [7]. The same compound showed an IC50 in data set [8] of 3600 nM.
